US20210395680A1, “COMPOSITION AND KIT FOR DIFFERENTIATION OF STEM CELLS INTO NEURAL PROGENITOR CELLS, AND METHOD USING SAME” (CHA UNIVERSITY INDUSTRY-ACADEMIC COOPERATION FOUNDATION, priority 2018, published 2021)

Columns and labels:
[1] = test system: H9 human embryonic stem cells (hESCs); test: Differentiation of H9 hESCs into neural progenitor cells via embryoid bodies; SOX1/P75 flow cytometry; assay type: cell-based
CHA6-hESC = test: Differentiation of CHA6-hESC into neural progenitor cells; SOX1/P75 flow cytometry; assay type: cell-based, human; conditions: defined medium 1 including PKC inhibitor and BMP inhibitor; total of 9 days
Protocol: (§1) The obtained colonies were finely chopped and suspension-cultured under conditions of 37° C. and 5% CO2 in a defined medium 1 containing 5 […] of a PKC inhibitor and 0.5 μM of a BMP inhibitor for about 4 days to prepare embryoid bodies (EBs). The defined medium 1 included DMEM/F12 (Life Technologies), 10 μg/ml of insulin (Sigma-Aldrich), 9 μg/ml of transferrin (Sigma-Aldrich), and 14 ng/ml of sodium selenite (Sigma-Aldrich). 3-(1-(3-Imidazol-1-yl propyl)-1H-indol-3-yl)-4-anilino-1H-pyrrole-2,5-dione) (PKC-beta inhibitor) (Millipore) was used as the PKC inhibitor. DMH1 (dorsomorphin homolog 1) (Tocris Bioscience, USA) which is a compound inhibiting BMP 1 type receptor was used as the BMP inhibitor. As a negative control, dimethyl sulfoxide (DMSO) (Sigma-Aldrich) was used instead of the drug.
(§2) EBs, which are round cell masses produced by suspension culture (defined medium 1) for about 4 days, were finely chopped, and then adhered to the bottom of the culture plate, followed by adherent culture for about 5 days (DMEM-F12, 1×N2 supplement, 25 μg/ml of insulin, 20 ng/ml of bFGF, and a matrigel-coated culture plate were used). Microscopic images of EBs obtained by suspension culture for about 4 days, and cells forming rossettes obtained by adherent culture for about 5 days are shown in FIG. 1B (left: embryoid bodies, right: cells forming rosettes). […]

[2] = test system: induced pluripotent stem cell line (iPS cell #3); test: Differentiation of induced pluripotent stem cell line (iPS cell #3) into neural progenitor cells; SOX1/P75 flow cytometry; assay type: cell-based, human; conditions: defined medium 1 including PKC inhibitor and BMP inhibitor; total of 9 days
Protocol: as §1, §2

CHA15-hESC = test: Differentiation of CHA15-hESC into neural progenitor cells; SOX1/P75 flow cytometry; assay type: cell-based, human; conditions: defined medium 1 including PKC inhibitor and BMP inhibitor; total of 9 days
Protocol: as §1, §2

[3] = test system: H9 human embryonic stem cells (hESCs); test: Differentiation of H9 hESCs into neural progenitor cells via embryoid bodies; SOX1/P75 flow cytometry; assay type: cell-based; remark: listed apart in the source
Protocol: Colonies obtained by culturing H9 human embryonic stem cells (hESCs) (WiCell Research Institute, Inc. Madison, Wis., U.S.A.) in a culture medium were dissociated into single cells using accutase (Life Technologies).
The cells dissociated into single cells were seeded in a culture plate coated with a protein such as vitronectin (VTN) (vitronectin XF, STEMCELL Technologies), laminine (rhLaminin-521, Thermo Fisher Scientific Inc., Waltham, Mass., USA), fibronectin (Thermo Fisher Scientific Inc.), or Matrigel™ (StemCell Technologies, Inc.). An embryonic stem cell (ESC) culture medium was added to the seeded cells to perform undifferentiation culture. As the ESC culture medium, Essential 8 (E8) medium (StemCell Technologies Inc.), TeSR2 medium (StemCell Technologies Inc), StemMACS (Miltenyi Biotec, Bergisch Gladbach, Germany), etc. was used.
as §1
EBs, which are round cell masses produced by suspension culture (defined medium 1) for about 4 days, were finely chopped, and then adhered to the bottom of the culture plate, followed by adherent culture for about 5 days (DMEM-F12, 1×N2 supplement, 25 μg/ml of insulin, 20 ng/ml of bFGF, and a matrigel-coated culture plate were used). Microscopic images of EBs obtained by suspension culture for about 4 days, and cells forming rossettes obtained by adherent culture for about 5 days are shown in FIG. 1B (left: embryoid bodies, right: cells forming rosettes).
2% (v/v) paraformaldehyde (Sigma-Aldrich) was added to cells cultured for a total of 9 days (suspension culture for 4 days+adherent culture for 5 days), and allowed to react at room temperature for about 10 minutes to fix the cells. 2% (v/v) normal serum/1×PBS (Vector Laboratories, Inc., Burlingame, Calif.) containing 0.1% (v/v) TRITON™ X-100 (Sigma-Aldrich) was added to the cells, and allowed to react at room temperature for 30 minutes to block the fixation. To analyze a proportion of cells expressing SOX1 which is a neural progenitor cell (NPC) marker or P75 protein which is a neural crest stem cell (NCSC) marker, immunostaining was performed using phycoerythrin (PE)-labeled anti-P75 monoclonal antibody (1:50 dilution) (Miltenyi Biotec), and phycoerythrin (PE)-labeled anti-Sox1 monoclonal antibody (1:100 dilution) (BD Biosciences). The immunostained cells were subjected to flow cytometry using a BD FACSCalibur flow cytometer (BD Biosciences, Sparks, Md., USA).
H9-hESCs were cultured by the method of differentiating via embryoid bodies as in Example 1.1(1). However, a defined medium 2 described below was used instead of the defined medium 1 used in Example 1.1(1).
The defined medium 2 was prepared by mixing knockout DMEM (Invitrogen), 20% (v/v) knockout serum replacement (KSR, Invitrogen), 2 mM L-glutamine (invitrogen), 1% (w/v) penicillin/streptomycin (Invitrogen), and 0.1 mM β-mercaptoethanol (Invitrogen).
H9-hESCs were cultured by the method of differentiating via embryoid bodies as in Example 1(1). However, a defined medium 3 was used instead of the defined medium 1 used in Example 1(1). The defined medium 3 was prepared by mixing DMEM/F12 (Invitrogen) and N2 supplement (Invitrogen). […]

[4] = defined medium 2 including PKC inhibitor and BMP inhibitor
[5] = defined medium 3 including PKC inhibitor and BMP inhibitor

Structure (SMILES)	differentiation into P75-expressing neural crest stem cells ([1]; defined medium 1, only 5 μM PKC inhibitor without DMH1) [%]	differentiation into NPCs (CHA6-hESC)	differentiation into NPCs [2]	differentiation into SOX1-expressing NPCs ([1]; defined medium 1, 5 μM PKC inhibitor + 0.25 μM to 5 μM DMH1) [%]	differentiation into P75-expressing neural crest stem cells ([1]; defined medium 2, 5 μM PKC inhibitor + 0 μM to 0.5 μM DMH1) [%]	differentiation into SOX1-expressing NPCs ([1]; defined medium 2, 5 μM PKC inhibitor + 5 μM DMH1) [%]	differentiation into NPCs (CHA15-hESC)	cells expressing SOX1 (NPC marker) ([3]; defined medium 1, 5 μg/ml PKC inhibitor + 0.5 μM DMH1, suspension culture 4 days + adherent culture 5 days)	number of cells expressing P75 (neural crest stem cell marker) ([3]; defined medium 1, 5 μg/ml PKC inhibitor + 0.5 μM DMH1, total of 9 days culture)	differentiation into NPC ([3]; defined medium 1 including PKC inhibitor and DMH1)	differentiation into NPCs [3, 4]	number of cells expressing P75 (neural crest stem cell marker) [3, 4]	cells expressing SOX1 (NPC marker) ([3]; defined medium 2 including PKC inhibitor and BMP inhibitor, 4 days suspension + 5 days adherent)	differentiation into NPCs [3, 5]	number of cells expressing P75 (neural crest stem cell marker) [3, 5]	cells expressing SOX1 (NPC marker) ([3]; defined medium 3 including PKC inhibitor and BMP inhibitor, 4 days suspension + 5 days adherent)
O=C1NC(=O)C(c2cn(CCCn3ccnc3)c3ccccc23)=C1Nc1ccccc1 [PKC inhibitor]	≥ 87															
CC(C)Oc1ccc(-c2cnc3c(-c4ccnc5ccccc45)cnn3c2)cc1 [DMH1, 4-[6-[4-(1-methylethoxy)phenyl]pyrazolo[1,5-a]pyrimidin-3-yl]-quinoline]		differentiation into NPCs is induced	differentiation into NPCs is induced	≥ 96	≥ 84	≥ 96	differentiation into NPCs is induced	most of the cultured cells expressed SOX1	small	differentiation into NPC is induced	differentiation into NPCs is induced	relatively very small	most of the cultured cells expressed SOX1	differentiation into NPCs is induced	relatively very small	most of the cultured cells expressed SOX1
